Usually IC50 stands for the midpoint of a concentration-inhibition curve. High values mean weaker potency in that assay, low ones greater potency in that assay. Broadly, the melting point is the temperature, or range, at which the solid turns liquid.

A value given as a limit tells only on which side of the number the result lay.

In one data set the target is T1, rhCRTh2 (Homo sapiens, UniProt Q9Y5Y4).
T1 construct: expressed in transfected cells; host or cells: HEK cells (membrane preparation)
T1 sequence (Q9Y5Y4 1-395): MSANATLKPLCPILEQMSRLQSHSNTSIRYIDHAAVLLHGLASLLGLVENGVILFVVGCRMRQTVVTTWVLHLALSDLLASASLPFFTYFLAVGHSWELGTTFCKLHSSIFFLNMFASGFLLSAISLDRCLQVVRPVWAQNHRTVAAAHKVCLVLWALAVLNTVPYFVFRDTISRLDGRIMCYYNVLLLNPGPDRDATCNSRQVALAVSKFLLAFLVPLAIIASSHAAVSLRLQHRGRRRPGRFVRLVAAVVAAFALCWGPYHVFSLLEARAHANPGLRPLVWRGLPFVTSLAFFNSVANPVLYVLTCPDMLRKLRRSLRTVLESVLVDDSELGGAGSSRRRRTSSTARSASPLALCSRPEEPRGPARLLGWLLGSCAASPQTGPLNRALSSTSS
As to the kind of experiment: Ligand binding assay ([3H]PGD2 displacement, SPA, HEK cell membranes). Conditions: [3H]PGD2 binding to membranes of HEK cells expressing rhCRTh2/Gα16, SPA beads, room temperature, 2 hours.
Procedure: [^3H]PGD2 was purchased from Perkin Elmer Life Sciences with a specific activity of 100-210 Ci/mmol.
HEK cells expressing rhCRTh2/Gα16 were routinely maintained in DMEM containing 10% Foetal Bovine Serum (HyClone), 1 mg/ml geneticin, 2 mM L-glutamine and 1% non-essential amino acids. For the preparation of membranes, the adherent transfected HEK cells were grown to confluence in two layer tissue culture factories (Fisher, catalogue number TKT-170-070E). Maximal levels of receptor expression were induced by addition of 500 mM sodium butyrate for the last 18 hours of culture. The adherent cells were washed once with phosphate buffered saline (PBS, 50 ml per cell factory) and detached by the addition of 50 ml per cell factory of ice-cold membrane homogenisation buffer [20 mM HEPES (pH 7.4), 0.1 mM dithiothreitol, 1 mM EDTA, 0.1 mM phenyl methyl sulphonyl fluoride and 100 μg/ml bacitracin]. Cells were pelleted by centrifugation at 220×g for 10 minutes at 4° C., re-suspended in half the original volume of fresh membrane homogenisation buffer and disrupted using a Polytron homogeniser for 2×20 second bursts keeping the tube in ice at all times. […] The final pellet was re-suspended in 4 ml of membrane homogenisation buffer per cell factory used and the protein content determined. […]
All assays were performed in Corning clear bottomed, white 96-well NBS plates (Fisher). […] (The optimum coating concentrations were determined for each batch of membranes) The beads were pelleted by centrifugation (800×g for 7 minutes at 4° C.), washed once with assay buffer (50 mM HEPES pH 7.4 containing 5 mM magnesium chloride) and finally re-suspended in assay buffer at a bead concentration of 10 mg/ml.
Compounds and DK-PGD2 were dissolved in DMSO and diluted in the same solvent to 100× the required final concentration. […] The assay plate was incubated at room temperature for 2 hours and counted on a Wallac Microbeta liquid scintillation counter (1 minute per well).
As to `Cc1c(Oc2ccc(Cl)cc2)c2cc(S(C)(=O)=O)ccc2n1CC(=O)O` [Example 5, 3-(4-chlorophenoxy)-2-methyl-5-(methylsulfonyl)-1H-indole-1-acetic acid], the IC50 was 89.1 nM. Still for that read-out and setting: the result for `Cc1c(Oc2ccc(Cl)cc2)c2cc(C(F)(F)F)ccc2n1CC(=O)O` [Example 6, 3-(4-chlorophenoxy)-2-methyl-5-(trifluoromethyl)-1H-indole-1-acetic acid] reads 11.2 nM; that for `Cc1c(Oc2ccc(C(=O)O)cc2)c2cc(F)ccc2n1CC(=O)O` [Example 9, 3-(4-Carboxyphenoxy)-5-fluoro-2-methyl-1H-indole-1-acetic acid], 178 nM.

System in another data set: not given
Experiment: not given
Details: not given
The compound `Cc1c(Oc2ccc(S(C)(=O)=O)cc2)c2cc(F)ccc2n1CC(=O)O` [Example 2, 5-Fluoro-2-methyl-3-[4-(methylsulfonyl)phenoxy]-1H-indole-1-acetic acid] had a melting point of 204 to 207 °C. Compound `CNC(=O)c1ccc(Oc2c(C)n(CC(=O)O)c3ccc(F)cc23)cc1` [Example 10, 5-Fluoro-2-methyl-3-[4-[(methylamino)carbonyl]phenoxy]-1H-indole-1-acetic acid] had a melting point of 217 to 218 °C. `CCNC(=O)c1ccc(Oc2c(C)n(CC(=O)O)c3ccc(F)cc23)cc1` [Example 11, 3-[4-[(Ethylamino)carbonyl]phenoxy]-5-fluoro-2-methyl-1H-indole-1-acetic acid] displayed a melting point of 220 to 222 °C.

Compound `Cc1c(Oc2ccc(C(=O)NC(C)C)cc2)c2cc(F)ccc2n1CC(=O)O` [Example 12, 5-Fluoro-2-methyl-3-[4-[[(1-methylethyl)amino]carbonyl]phenoxy]-1H-indole-1-acetic acid] yielded a melting point of 218 to 219 °C. Still for that read-out and setting: to `Cc1c(Oc2ccc(C(=O)O)cc2)c2cc(Cl)ccc2n1CC(=O)O` [Example 13, 3-(4-Carboxyphenoxy)-5-chloro-2-methyl-1H-indole-1-acetic acid] belongs 215 to 216 °C; to `COC(=O)c1ccc(Oc2c(C)n(CC(=O)O)c3ccc(F)cc23)cc1` [Example 14, 5-Fluoro-3-[4-(methoxycarbonyl)phenoxy]-2-methyl-1H-indole-1-acetic acid], 195 to 196 °C; to `COC(=O)c1ccc(Oc2c(C)n(CC(=O)O)c3ccc(Cl)cc23)cc1` [Example 15, 5-Chloro-3-[4-(methoxycarbonyl)phenoxy]-2-methyl-1H-indole-1-acetic acid], 196 to 197 °C. On the same count and under the same terms, the result for `CNC(=O)c1ccc(Oc2c(C)n(CC(=O)O)c3ccc(Cl)cc23)cc1` [Example 16, 5-Chloro-2-methyl-3-[4-[(methylamino)carbonyl]phenoxy]-1H-indole-1-acetic acid] reads 225 °C (dec.). On the same count and under the same terms, the result for `CCNC(=O)c1ccc(Oc2c(C)n(CC(=O)O)c3ccc(Cl)cc23)cc1` [Example 17, 5-Chloro-3-[4-[(ethylamino)carbonyl]phenoxy]-2-methyl-1H-indole-1-acetic acid] reads 220 °C (dec.); that for `Cc1c(Oc2ccc(C(=O)NC(C)C)cc2)c2cc(Cl)ccc2n1CC(=O)[O-].[Na+]` [Example 18, Sodium 5-Chloro-2-methyl-3-[4-[[(1-methylethyl)amino]carbonyl]phenoxy]-1H-indole-1-acetate], under 275 °C.

The values above are taken from patent US7709521B2, “Substituted indole derivatives for pharmaceutical compositions for treating respiratory diseases” (AstraZeneca AB, priority 2003, dated 2010).
